Measured values taken from patent US20210395256A1, “TYROSINE KINASE INHIBITORS, COMPOSITIONS AND METHODS THERE OF” (Betta Pharmaceuticals Co., Ltd., priority 2018, published 2021).

Tests used:
Format in all cases: in vitro ADME
CYP2C8 = target: T1, CYP2C8 (Homo sapiens, UniProt P10632); assay: Cytochrome P450 inhibition, CYP2C8; details: probe Paclitaxel (5 μM); 10 μM compound, human liver microsomes, substrate Paclitaxel; read-out: Inhibition percentage CYP2C8 (Paclitaxel)
T1 construct: from tissue; host or cells: human liver microsomes
T1 sequence (P10632 1-490): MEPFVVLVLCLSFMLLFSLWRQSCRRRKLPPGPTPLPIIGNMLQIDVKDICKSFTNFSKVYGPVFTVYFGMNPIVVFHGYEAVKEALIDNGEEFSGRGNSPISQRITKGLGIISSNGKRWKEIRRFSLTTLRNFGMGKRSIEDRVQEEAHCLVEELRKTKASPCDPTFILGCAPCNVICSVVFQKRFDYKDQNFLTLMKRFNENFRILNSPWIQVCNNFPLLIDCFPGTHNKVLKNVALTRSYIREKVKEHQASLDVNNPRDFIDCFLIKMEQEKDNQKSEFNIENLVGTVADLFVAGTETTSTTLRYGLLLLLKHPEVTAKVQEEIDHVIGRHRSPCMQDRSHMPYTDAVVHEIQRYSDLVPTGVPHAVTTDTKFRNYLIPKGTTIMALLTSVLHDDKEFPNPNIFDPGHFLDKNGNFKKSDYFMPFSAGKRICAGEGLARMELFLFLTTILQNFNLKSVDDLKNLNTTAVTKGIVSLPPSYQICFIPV
Protocol: (§1) Example 205 Cytochrome P450 Measurements
(§2) The cytochrome P450 was measured as the following procedure:
(§3) 1) A master solution containing phosphate buffer, ultra-pure H2O, MgCl2 solution and human liver microsomes was made according to Table 17, and then 1 μL of 2 mM of compound solution or 1 μL of DMSO (as without inhibitor control) was added to the above master solution. The final concentration of test compounds or control compounds was 10 μM.
3) For CYP2C8 inhibition, 1 μL of specific drug substrate (Paclitaxel: 1 mM) was added at the final concentration of 5 μM to the above solution.
(§4) 8) The mixture was pre-warmed at 37° C. for 5 min. The reaction was started by the addition of 20 μL of 10 mM NADPH solution at the final concentration of 1 mM and carried out at 37° C.
(§5) 9) The reaction was stopped by addition of 300 μL of cold quench solution (methanol containing internal standards (1S, 500 nM Labetalol, 100 nM Alprazolam and 2 μM Ketoprofen) at the designated time points (Phenacetin: 20 min; Paclitaxel: 10 min; Tolbutamide: 20 min; (s)-Mephenytoin: 20 min; Midazolam: 5 min; Testosterone: 10 min). Samples were vortexed for 5 minutes and centrifuged at 3220 g for 40 minutes at 4° C. And then 100 μL of the supernatant was transferred to a new 96-well plate with 100 μL or 200 μL water (depends on the LC-MS signal response and peak shape) for LC-MS/MS analysis.
(§6) All experiments were performed in duplicates.
(§7) Inhibition percentages for compounds against CYP1A2, CYP2C8, CYP2C9, CYP2C19, and […]

CYP2C9 = target: T2, CYP2C9 (Homo sapiens, UniProt P11712); assay: Cytochrome P450 inhibition, CYP2C9; details: probe Tolbutamide (200 μM); 10 μM compound, human liver microsomes, substrate Tolbutamide; read-out: Inhibition percentage CYP2C9 (Tolbutamide)
T2 construct: from tissue; host or cells: human liver microsomes
T2 sequence (P11712 whole entry): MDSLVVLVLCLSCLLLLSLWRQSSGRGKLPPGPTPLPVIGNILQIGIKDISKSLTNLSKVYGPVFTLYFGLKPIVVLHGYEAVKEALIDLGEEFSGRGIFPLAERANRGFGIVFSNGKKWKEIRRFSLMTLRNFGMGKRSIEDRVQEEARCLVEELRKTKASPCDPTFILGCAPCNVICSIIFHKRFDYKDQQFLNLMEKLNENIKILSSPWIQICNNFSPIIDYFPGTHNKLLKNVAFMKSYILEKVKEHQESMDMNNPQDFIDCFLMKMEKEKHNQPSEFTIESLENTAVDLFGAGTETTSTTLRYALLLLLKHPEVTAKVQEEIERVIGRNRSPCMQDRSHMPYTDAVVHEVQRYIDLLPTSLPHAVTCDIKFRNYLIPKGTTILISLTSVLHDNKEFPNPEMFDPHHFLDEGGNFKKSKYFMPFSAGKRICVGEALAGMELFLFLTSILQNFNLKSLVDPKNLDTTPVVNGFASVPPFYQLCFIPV
Protocol: as §1, §2, §3
4) For CYP2C9 inhibition, 1 μL of specific drug substrate (Tolbutamide: 40 mM) was added at the final concentration of 200 μM to the above solution.
as §4, §5, §6, §7

CYP2C19 = target: T3, CYP2C19 (Homo sapiens, UniProt P33261); assay: Cytochrome P450 inhibition, CYP2C19; details: probe (s)-Mephenytoin (50 μM); 10 μM compound, human liver microsomes, substrate (s)-Mephenytoin; read-out: Inhibition percentage CYP2C19 ((s)-Mephenytoin)
T3 construct: from tissue; host or cells: human liver microsomes
T3 sequence (P33261 whole entry): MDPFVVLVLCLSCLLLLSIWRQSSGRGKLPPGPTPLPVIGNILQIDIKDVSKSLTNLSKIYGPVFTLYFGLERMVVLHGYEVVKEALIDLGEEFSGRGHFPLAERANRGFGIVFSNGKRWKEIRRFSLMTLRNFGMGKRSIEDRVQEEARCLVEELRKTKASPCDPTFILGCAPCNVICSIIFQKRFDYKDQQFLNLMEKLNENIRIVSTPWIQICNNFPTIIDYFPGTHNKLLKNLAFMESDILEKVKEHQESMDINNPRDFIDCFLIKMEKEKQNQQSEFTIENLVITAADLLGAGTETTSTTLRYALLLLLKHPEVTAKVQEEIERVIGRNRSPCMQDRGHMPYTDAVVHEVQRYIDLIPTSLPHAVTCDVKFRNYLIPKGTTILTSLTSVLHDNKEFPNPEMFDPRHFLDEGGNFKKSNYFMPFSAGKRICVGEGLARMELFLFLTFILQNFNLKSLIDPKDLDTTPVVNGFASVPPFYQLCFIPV
Protocol: as §1, §2, §3
5) For CYP2C19 inhibition, 1 μL of specific drug substrate ((s)-Mephenytoin: 10 mM) was added at the final concentration of 50 μM to the above solution.
as §4, §5, §6, §7

CYP3A4 = target: T4, CYP3A4 (Homo sapiens, UniProt P08684); assay: Cytochrome P450 inhibition, CYP3A4; details: 10 μM compound, human liver microsomes; for inhibition at 5 min, 10 µM: probe Midazolam (5 μM), substrate Midazolam, read-out: Inhibition percentage CYP3A4 (Midazolam); for inhibition at 10 min, 10 µM: probe Testosterone (50 μM), substrate Testosterone, read-out: Inhibition percentage CYP3A4 (Testosterone)
T4 construct: from tissue; host or cells: human liver microsomes
T4 sequence (P08684 whole entry): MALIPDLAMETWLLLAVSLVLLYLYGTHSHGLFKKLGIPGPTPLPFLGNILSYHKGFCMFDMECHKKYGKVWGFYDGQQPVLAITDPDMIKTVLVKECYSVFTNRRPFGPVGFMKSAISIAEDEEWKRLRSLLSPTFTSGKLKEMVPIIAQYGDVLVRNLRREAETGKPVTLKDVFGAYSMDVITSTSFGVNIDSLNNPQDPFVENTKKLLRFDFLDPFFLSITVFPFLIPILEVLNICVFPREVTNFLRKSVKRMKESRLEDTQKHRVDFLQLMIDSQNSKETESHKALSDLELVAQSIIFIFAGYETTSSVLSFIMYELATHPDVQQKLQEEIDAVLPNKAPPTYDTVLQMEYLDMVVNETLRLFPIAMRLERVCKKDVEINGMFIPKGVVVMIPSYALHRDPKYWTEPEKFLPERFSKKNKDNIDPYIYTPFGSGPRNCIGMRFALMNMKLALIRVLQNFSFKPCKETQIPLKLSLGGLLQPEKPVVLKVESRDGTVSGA
Protocol: as §1, §2, §3
6) For CYP3A4 inhibition, 1 μL of specific drug substrate (Midazolam: 1 mM) was added at the final concentration of 5 μM to the above solution.
7) For CYP3A4 inhibition, 1 μL of specific drug substrate (Testosterone: 10 mM) was added at the final concentration of 50 μM to the above solution.
as §4, §5, §6, §7

inhibition at 10 min, 10 µM (CYP2C8) [%]	inhibition at 20 min, 10 µM (CYP2C9) [%]	inhibition at 20 min, 10 µM (CYP2C19) [%]	inhibition at 5 min, 10 µM (CYP3A4) [%]	inhibition at 10 min, 10 µM (CYP3A4) [%]	SMILES
18.2	5.96	7.23	20	22.8	C[C@H](O)c1nnc(-c2cnn3ccc(N4CCC[C@@H]4c4cc(F)ccc4F)nc23)[nH]1 [Compound 4, (S)-1-(5-(5-((R)-2-(2,5-difluorophenyl)pyrrolidin-1-yl)pyrazolo[1,5-a]pyrimidin-3-yl)-4H-1,2,4-triazol-3-yl)ethan-1-ol]
32.8	50.4	20.3	22.4	29.5	OC(c1nnc(-c2cnn3ccc(N4CCC[C@@H]4c4cc(F)ccc4F)nc23)[nH]1)C(F)(F)F (stereo partly drawn) [Compound 47, 1-(5-(5-((R)-2-(2,5-difluorophenyl)pyrrolidin-1-yl)pyrazolo[1,5-a]pyrimidin-3-yl)-4H-1,2,4-triazol-3-yl)-2,2,2-trifluoroethan-1-ol]
19.3	25.4	13	70.1	38.3	Cc1nnc(-c2cnn3ccc(N4CCCC4c4cc(F)ccc4F)nc23)[nH]1 (centres unmarked) [Comparative compound A, 5-[2-(2,5-Difluorophenyl)pyrrolidin-1-yl]-3-(5-methyl-1H-1,2,4-triazol-3-yl)pyrazolo[1,5-a]pyrimidine, reference compound]
1.37	22.7	6.79	6.97	5.7	CC(C)(O)c1nnc(-c2cnn3ccc(N4CCC[C@@H]4c4cc(F)ccc4F)nc23)[nH]1 [Compound 7, (R)-2-(5-(5-(2-(2,5-difluorophenyl)pyrrolidin-1-yl)pyrazolo[1,5-a]pyrimidin-3-yl)-4H-1,2,4-triazol-3-yl)propan-2-ol]
